Laboratory results taken from patent publication EP1997826A2, “Synthetic ligands for immunoglobulins and pharmaceutical compositions containing them” (Tecnogen S.p.A., priority 2007, dated 2008).

Tested on: female mice of the Balb/c strain
Assay type: in vivo, mouse
Description: Active cutaneous anaphylaxis on the mouse ear was induced according to the procedure described by Inagaki et al., Japan. J. Pharmacol. 1992, 59:201-208. Female mice of the Balb/c strain were immunized with the ovalbumin antigen in the presence of the adjuvant aluminium hydroxide gel (alum). The immunizations were carried out by intraperitoneal administration of 25 µg of ovalbumin and 1 mg of alum dissolved in 200 µl of PBS. A control group received intraperitoneal injections that only contained 1 mg of alum dissolved in 200 µl of PBS. […] After 30 minutes, the appearance, on the mouse ear, of stained areas in the dermis, with extent and intensity of staining proportional to the quantity of allergen injected, was observed. […] The sample was then stirred and filtered, and finally the amount of dye was determined with a spectrophotometer, taking readings at 620 nm. […] Extraction and quantification of the Evans Blue dye, discharged in the local inflammatory reaction, were carried out as described previously.

## (H-L-Cys(p-MeOBzl)-D-Arg-D-Thr-D-Tyr)4-L-Lys2-L-Lys-L-Lys-OH [Peptide IB]
Dose of Peptide 100 mg/kg intraperitoneally, 30 minutes before ovalbumin
  Inhibition of skin reaction (%): 100%
Mouse ear active cutaneous anaphylaxis
  activity greater than the activity of the comparative peptide: approx. 15 times
